Test results from US20110182954A1, “ORALLY-ADMINISTERED AGENT” (LINTEC Corporation, priority 2008, published 2011).

Assay: Viscosity of aqueous solution of constituent material (E-type viscometer)
Format: physicochemical
Details: for Water absorption promoter, Viscosity: aqueous solution of 5 mass % at 37° C., Examples 1-3, 7, 10-12 glycerin, other Examples the promoter other than glycerin; for Antiadhesive agent, Viscosity: aqueous solution of 5 mass % of the antiadhesive agent at 37° C.
Experimental: Tables 1 and 2 shown the constituent materials of the intestinal collapse-controlling layer, the gel-forming layer and the antiadhesive layer of the orally-administered agents obtained in the respective Examples and the respective Comparative Examples and the contents thereof. […] Furthermore, the viscosity of the water absorption promoter in the Table 1 and the viscosity of the antiadhesive agent in the Table 2 denote a viscosity at 37° C. of an aqueous solution of 5 mass % of the water absorption promoter and the antiadhesive agent, respectively. Each viscosity was measured with an E-type viscometer (a product of Tokimec, Inc.).

Compound	Water absorption promoter, Viscosity	Antiadhesive agent, Viscosity
OC[C@@H](O)[C@@H](O)[C@H](O)[C@H](O)CO [Man, mannitol]	0.87 mPa · s	0.87 mPa · s
OC[C@@H](O)[C@H](O)[C@@H](O)CO [Xyl, xylitol]	1.08 mPa · s	0.87 mPa · s
